Here are results for 7 molecules from ChEMBL document CHEMBL5107984, “The untapped potential of spermidine alkaloids: Sources, structures, bioactivities and syntheses” (Eur J Med Chem, 2022).

One may read the inhibition as the percentage by which the read-out fell short of the control. A word on the Ki: it is the equilibrium dissociation constant of an inhibitor or competing ligand from its target. A lower Ki goes with higher affinity. One may read the IC50 as the midpoint of a concentration-inhibition curve. A low value points to higher potency.

Assay [1] deals with Cholinesterase (Homo sapiens) (UniProt P06276). Description: Inhibition of human BChE at 800 uM using butyrylthiocholine iodide as substrate incubated for 10 mins by Ellman's method. For orientation: Ellman's reagent forms a yellow product with free thiols.
Assay [2] can be described thus: Antioxidant activity assessed as trolox equivalent of ORAC radical scavenging activity by ORAC assay. It counts as functional.
Assay [3] addresses Cholesterol 24-hydroxylase (Homo sapiens, UniProt Q9Y6A2). Nature of the assay: Inhibition of CYP46A1 (unknown origin). The class given is ADME.
Another assay deals with SARS-CoV-2. Nature of the assay: Antiviral activity against SARS-CoV-2. The class given is functional, Severe acute respiratory syndrome coronavirus 2.
Assay [4] has as its target Sodium-dependent serotonin transporter (Rattus norvegicus, UniProt P31652). Nature of the assay: Displacement of [3H]-5HT from rat SERT expressed in CHO cells incubated for 20 mins by liquid scintillation analysis. The class given is cell-based. For orientation: Displacement assays read how much labelled ligand stays bound in the presence of the test substance.
Assay [5] can be described thus: Inhibition of 5HT uptake in Sprague-Dawley rat brain Synaptosome. It counts as subcellular.

Chain of Cholesterol 24-hydroxylase (Q9Y6A2 whole entry): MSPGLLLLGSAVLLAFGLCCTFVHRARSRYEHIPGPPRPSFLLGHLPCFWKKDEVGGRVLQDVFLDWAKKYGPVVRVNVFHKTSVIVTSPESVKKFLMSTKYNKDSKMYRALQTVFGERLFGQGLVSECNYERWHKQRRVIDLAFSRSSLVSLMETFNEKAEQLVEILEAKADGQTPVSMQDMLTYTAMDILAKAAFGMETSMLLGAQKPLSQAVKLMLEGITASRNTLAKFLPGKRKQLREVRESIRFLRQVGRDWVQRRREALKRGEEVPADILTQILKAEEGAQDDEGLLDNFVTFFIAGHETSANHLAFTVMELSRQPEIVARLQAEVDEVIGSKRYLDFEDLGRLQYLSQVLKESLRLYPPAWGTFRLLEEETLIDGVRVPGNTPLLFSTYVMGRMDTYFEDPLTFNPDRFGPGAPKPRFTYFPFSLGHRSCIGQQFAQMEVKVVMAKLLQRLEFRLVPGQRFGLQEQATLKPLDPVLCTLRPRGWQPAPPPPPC
Chain of Cholinesterase (Homo sapiens) (P06276 whole entry): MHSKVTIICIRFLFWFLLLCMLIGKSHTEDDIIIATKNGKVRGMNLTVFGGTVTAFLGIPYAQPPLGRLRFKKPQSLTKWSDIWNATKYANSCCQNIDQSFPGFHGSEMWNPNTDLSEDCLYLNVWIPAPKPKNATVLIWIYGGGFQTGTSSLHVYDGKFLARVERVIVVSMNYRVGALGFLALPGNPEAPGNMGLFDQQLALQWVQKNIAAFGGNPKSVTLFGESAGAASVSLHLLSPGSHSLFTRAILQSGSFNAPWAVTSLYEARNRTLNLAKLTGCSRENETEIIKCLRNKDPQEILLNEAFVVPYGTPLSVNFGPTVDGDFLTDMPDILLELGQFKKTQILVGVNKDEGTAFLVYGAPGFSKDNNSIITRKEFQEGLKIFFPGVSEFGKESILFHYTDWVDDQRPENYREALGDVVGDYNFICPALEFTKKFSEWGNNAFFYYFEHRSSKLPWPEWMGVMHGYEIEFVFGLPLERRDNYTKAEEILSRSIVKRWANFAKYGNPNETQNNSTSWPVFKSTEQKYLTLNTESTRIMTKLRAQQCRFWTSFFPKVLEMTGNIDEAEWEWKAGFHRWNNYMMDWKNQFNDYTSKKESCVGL
Chain of Sodium-dependent serotonin transporter (P31652 whole entry): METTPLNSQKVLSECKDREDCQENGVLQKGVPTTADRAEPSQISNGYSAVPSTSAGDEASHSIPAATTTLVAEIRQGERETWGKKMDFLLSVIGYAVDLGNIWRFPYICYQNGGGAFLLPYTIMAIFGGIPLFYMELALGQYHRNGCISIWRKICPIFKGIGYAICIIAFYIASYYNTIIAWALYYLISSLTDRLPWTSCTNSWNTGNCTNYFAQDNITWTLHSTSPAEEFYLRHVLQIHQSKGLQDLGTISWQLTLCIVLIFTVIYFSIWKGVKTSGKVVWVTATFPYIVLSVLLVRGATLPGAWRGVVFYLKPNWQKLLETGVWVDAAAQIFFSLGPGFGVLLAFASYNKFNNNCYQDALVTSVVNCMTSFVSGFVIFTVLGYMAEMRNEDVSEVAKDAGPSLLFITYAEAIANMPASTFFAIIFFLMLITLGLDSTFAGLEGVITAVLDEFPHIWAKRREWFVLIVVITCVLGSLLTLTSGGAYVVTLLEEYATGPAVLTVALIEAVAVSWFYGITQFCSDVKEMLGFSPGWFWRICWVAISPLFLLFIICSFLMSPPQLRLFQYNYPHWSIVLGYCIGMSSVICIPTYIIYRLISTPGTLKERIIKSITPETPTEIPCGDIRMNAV

`O=C1CCc2cc(O)c(O)cc2[C@@H](c2ccc(O)c(O)c2)CC(=O)NCCCCNCCCN1`: in assay [1], the inhibition is 37.8%. Also, the Activity in assay [2] was found to be 2.68 µM.

`O=C1CCc2cc(O)c(O)cc2[C@H](c2ccc(O)c(O)c2)CC(=O)NCCCCNCCCN1` showed an inhibition in assay [1] of 18.1%. The Activity in assay [2] came out at 2.37 µM. In the case of `O=C(/C=C/c1ccc(O)c(O)c1)NCCCNCCCCNC(=O)CCc1ccc(O[C@@H]2O[C@H](CO)[C@@H](O)[C@H](O)[C@H]2O)c(O)c1`, in assay [3], affinity was put at a Ki of 258 nM.

In assay [3], `O=C(/C=C/c1ccc(O)c(O[C@@H]2O[C@H](CO)[C@@H](O)[C@H](O)[C@H]2O)c1)NCCCNCCCCNC(=O)CCc1ccc(O)c(O)c1` registered a Ki of 12.9 nM. `O=C(/C=C/c1ccc(O[C@@H]2O[C@H](CO)[C@@H](O)[C@H](O)[C@H]2O)c(O)c1)NCCCNCCCCNC(=O)CCc1ccc(O)c(O)c1` yielded a Ki in assay [3] of 106 nM. As for `NCCCCNCCCN` [SPERMIDINE], the “inhibition (INH)” value in the assay with SARS-CoV-2 amounted to 85%. Regarding `O=C(/C=C/c1ccc(O)cc1)NCCCCN(CCCNC(=O)/C=C/c1ccc(O)cc1)C(=O)/C=C\c1ccc(O)cc1`, the IC50 in assay [4] worked out at 740 nM; in assay [5] it was 1070 nM.
